Common to all, as to format: functional
Experiment [1] has as its system Mycobacterium tuberculosis. Briefly: Antimicrobial activity against Mycobacterium tuberculosis H37Rv by microbroth dilution method. (Dilution methods test growth across graded concentrations, often in twofold steps.)
A further experiment has as its system Enterococcus faecalis. Briefly: Antimicrobial activity against Enterococcus faecalis ATCC 33186 by microbroth dilution method.
Experiment [2] deals with Staphylococcus aureus. Briefly: Antimicrobial activity against methicillin-sensitive Staphylococcus aureus ATCC 29213 by microbroth dilution method.
Experiment [3] concerns Escherichia coli. The experiment can be described thus: Antimicrobial activity against Escherichia coli K-12 by microbroth dilution method.
Experiment [4] concerns Escherichia coli. Briefly: Antimicrobial activity against tolC-deficient Escherichia coli by microbroth dilution method.
For experiment [5], the system named is Staphylococcus aureus. The experiment can be described thus: Antimicrobial activity against methicillin-resistant Staphylococcus aureus NRS 70 by microbroth dilution method.
In a further experiment the test system is Klebsiella pneumoniae. Briefly: Antimicrobial activity against Klebsiella pneumoniae ATCC 33495 at >200 ug/ml by microbroth dilution method.
Another experiment relates to Pseudomonas aeruginosa. Briefly: Antimicrobial activity against Pseudomonas aeruginosa PAO1 at >200 ug/ml by microbroth dilution method.

In brackets after ≈: the same amount, converted by molar mass.

The MIC is the lowest concentration found to suppress growth. The low end stands for a more susceptible organism, the high end for a less susceptible organism. For `C=CCOc1ccccc1C1CC(=O)c2ccc(O)cc2O1` (stereo not given), the MIC in experiment [1] is 100 µg/mL (≈ 337 µM); in the experiment with Enterococcus faecalis it was 50 µg/mL (≈ 169 µM); against Staphylococcus aureus [2] it was 25 µg/mL (≈ 84.4 µM); with Escherichia coli [3] it was greater than 200 µg/mL; in the experiment on Escherichia coli [4], 12.5 µg/mL (≈ 42.2 µM); in the experiment on Staphylococcus aureus [5], 25 µg/mL (≈ 84.4 µM). The MIC in the experiment on Klebsiella pneumoniae and in the experiment with Pseudomonas aeruginosa was greater than 200 µg/mL in each case.
For `CCCCCCCCCC1C/C(=N\OC)c2c(O)cc(O)cc2O1` (stereo not given), the minimum inhibitory concentration (MIC) in experiment [1] is 200 µg/mL (≈ 596 µM); against Enterococcus faecalis it was greater than 200 µg/mL; with Staphylococcus aureus [2], 100 µg/mL (≈ 298 µM); against Escherichia coli [3], greater than 200 µg/mL; in the experiment on Escherichia coli [4], greater than 200 µg/mL; against Staphylococcus aureus [5], 25 µg/mL (≈ 74.5 µM). For the same compound, the MIC with Klebsiella pneumoniae and against Pseudomonas aeruginosa was greater than 200 µg/mL each time.
In the case of `CC1(C)C2CC=C(/C=C/C(=O)c3c(O)cc(O)cc3O)C1C2` (stereo not given), the MIC in experiment [1] was greater than 200 µg/mL; in the experiment on Enterococcus faecalis it was 25 µg/mL (≈ 83.2 µM); against Staphylococcus aureus [2], greater than 200 µg/mL; in the experiment with Escherichia coli [3] it was greater than 200 µg/mL; against Escherichia coli [4], 6.25 µg/mL (≈ 20.8 µM); in the experiment on Staphylococcus aureus [5], 200 µg/mL (≈ 666 µM). Besides, the MIC in the experiment with Klebsiella pneumoniae and against Pseudomonas aeruginosa was greater than 200 µg/mL throughout.
Regarding `CCCCCCC1CC(=O)c2c(OCOC)cc(OCOC)cc2O1` (stereo not given), the MIC was 50 µg/mL (≈ 142 µM) in experiment [1]; greater than 200 µg/mL against Enterococcus faecalis; greater than 200 µg/mL against Staphylococcus aureus [2]; greater than 200 µg/mL against Escherichia coli [3]; 6.25 µg/mL (≈ 17.7 µM) against Escherichia coli [4]; greater than 200 µg/mL against Staphylococcus aureus [5]. In addition, the MIC against Klebsiella pneumoniae and with Pseudomonas aeruginosa was greater than 200 µg/mL in each case.
For the compound `O=C1CC2(CCCC2)Oc2cc(O)ccc21`, the minimum inhibitory concentration (MIC) in experiment [1] is 200 µg/mL (≈ 916 µM); with Enterococcus faecalis it was greater than 200 µg/mL; in the experiment on Staphylococcus aureus [2], greater than 200 µg/mL; with Escherichia coli [3], greater than 200 µg/mL; against Escherichia coli [4], 100 µg/mL (≈ 458 µM); with Staphylococcus aureus [5], greater than 200 µg/mL. For the same compound, the MIC in the experiment with Klebsiella pneumoniae and with Pseudomonas aeruginosa was greater than 200 µg/mL in each case.
For `CCCCCCC1C/C(=N\O)c2c(O)cc(O)cc2O1` (stereo not given), the MIC in experiment [1] was 100 µg/mL (≈ 358 µM); against Enterococcus faecalis, 12.5 µg/mL (≈ 44.7 µM); against Staphylococcus aureus [2], 6.25 µg/mL (≈ 22.4 µM); with Escherichia coli [3], greater than 200 µg/mL; with Escherichia coli [4] it was 3.13 µg/mL (≈ 11.2 µM); in the experiment on Staphylococcus aureus [5], 6.25 µg/mL (≈ 22.4 µM). In addition, the minimal inhibitory concentration (MIC) in the experiment with Klebsiella pneumoniae and against Pseudomonas aeruginosa was greater than 200 µg/mL in each case.
With `CCCCCCCCOc1ccccc1/C=C/C(=O)c1ccc(O)cc1O`, the MIC in experiment [1] was greater than 200 µg/mL; against Enterococcus faecalis, 1.56 µg/mL (≈ 4.23 µM); with Staphylococcus aureus [2] it was 25 µg/mL (≈ 67.8 µM); against Escherichia coli [3], greater than 200 µg/mL; against Escherichia coli [4], greater than 200 µg/mL; against Staphylococcus aureus [5] it was 6.25 µg/mL (≈ 17 µM). Moreover, the MIC with Klebsiella pneumoniae and in the experiment with Pseudomonas aeruginosa was greater than 200 µg/mL each time.
With `CC(C)=CCCC(C)CC1CC(=O)c2c(O)cccc2O1` (stereo not given), the MIC (in experiment [1]; against Enterococcus faecalis; with Staphylococcus aureus [2]; in the experiment on Escherichia coli [3]; against Escherichia coli [4]; against Staphylococcus aureus [5]) was greater than 200 µg/mL throughout. The MIC against Klebsiella pneumoniae and in the experiment on Pseudomonas aeruginosa was greater than 200 µg/mL throughout.
On to `O=C1CC(CCc2ccccc2)Oc2cc(O)ccc21` (stereo not given), for which the MIC is 100 µg/mL (≈ 373 µM) in experiment [1]; greater than 200 µg/mL in the experiment with Enterococcus faecalis; 50 µg/mL (≈ 186 µM) against Staphylococcus aureus [2]; greater than 200 µg/mL in the experiment with Escherichia coli [3]; 12.5 µg/mL (≈ 46.6 µM) with Escherichia coli [4]; 50 µg/mL (≈ 186 µM) in the experiment with Staphylococcus aureus [5]. Besides, the minimum inhibitory concentration (MIC) against Klebsiella pneumoniae and in the experiment with Pseudomonas aeruginosa was greater than 200 µg/mL in each case.
Consider `COCOc1cc(OCOC)c2c(c1)OC(CC(C)CCC=C(C)C)CC2=O` (stereo not given), for which the MIC (in experiment [1]; with Enterococcus faecalis; in the experiment with Staphylococcus aureus [2]; in the experiment on Escherichia coli [3]; against Escherichia coli [4]; in the experiment with Staphylococcus aureus [5]) was greater than 200 µg/mL each time. Moreover, the MIC in the experiment with Klebsiella pneumoniae and against Pseudomonas aeruginosa was greater than 200 µg/mL in each case.
As to `CC1(C)C2CC=C(C3CC(=O)c4c(O)cc(O)cc4O3)C1C2` (stereo not given), the MIC was 200 µg/mL (≈ 666 µM) in experiment [1]; 12.5 µg/mL (≈ 41.6 µM) against Enterococcus faecalis; 12.5 µg/mL (≈ 41.6 µM) against Staphylococcus aureus [2]; greater than 200 µg/mL in the experiment with Escherichia coli [3]; 3.13 µg/mL (≈ 10.4 µM) against Escherichia coli [4]; 6.25 µg/mL (≈ 20.8 µM) with Staphylococcus aureus [5]. The MIC with Klebsiella pneumoniae and against Pseudomonas aeruginosa was greater than 200 µg/mL in each case.
Take `CCCCCCCCCC1C/C(=N\OCc2ccccc2)c2c(O)cc(O)cc2O1` (stereo not given): the MIC was greater than 200 µg/mL in experiment [1]; 50 µg/mL (≈ 121 µM) in the experiment with Enterococcus faecalis; greater than 200 µg/mL in the experiment with Staphylococcus aureus [2]; greater than 200 µg/mL in the experiment with Escherichia coli [3]; greater than 200 µg/mL with Escherichia coli [4]; greater than 200 µg/mL in the experiment with Staphylococcus aureus [5]. Besides, the MIC in the experiment with Klebsiella pneumoniae and in the experiment on Pseudomonas aeruginosa was greater than 200 µg/mL in each case.
For the compound `COCOc1ccc2c(c1)OC(C1=CCC3CC1C3(C)C)CC2=O` (stereo not given), the minimum inhibitory concentration (MIC) in experiment [1] is 100 µg/mL (≈ 304 µM); against Enterococcus faecalis, greater than 200 µg/mL; in the experiment with Staphylococcus aureus [2], greater than 200 µg/mL; in the experiment on Escherichia coli [3] it was greater than 200 µg/mL; in the experiment on Escherichia coli [4], 6.25 µg/mL (≈ 19 µM); with Staphylococcus aureus [5], greater than 200 µg/mL. The MIC in the experiment with Klebsiella pneumoniae and against Pseudomonas aeruginosa was greater than 200 µg/mL in each case.
`CCCCCCCCCC1CC(O)c2ccc(O)cc2O1` (stereo not given): the MIC in experiment [1] is greater than 200 µg/mL; against Enterococcus faecalis, 50 µg/mL (≈ 171 µM); in the experiment with Staphylococcus aureus [2] it was 20 µg/mL (≈ 68.4 µM); in the experiment with Escherichia coli [3] it was greater than 200 µg/mL; against Escherichia coli [4], 12.5 µg/mL (≈ 42.7 µM); in the experiment with Staphylococcus aureus [5], 25 µg/mL (≈ 85.5 µM). Moreover, the minimum inhibitory concentration (MIC) in the experiment on Klebsiella pneumoniae and against Pseudomonas aeruginosa was greater than 200 µg/mL in each case.
For `CCCCCCOc1cc(O)cc(O)c1C(=O)C(C)CC` (racemic), the MIC is 100 µg/mL (≈ 340 µM) in experiment [1]; 1.56 µg/mL (≈ 5.3 µM) with Enterococcus faecalis; 1.56 µg/mL (≈ 5.3 µM) in the experiment on Staphylococcus aureus [2]; greater than 200 µg/mL against Escherichia coli [3]; 3.13 µg/mL (≈ 10.6 µM) in the experiment on Escherichia coli [4]; 1.56 µg/mL (≈ 5.3 µM) against Staphylococcus aureus [5]. Besides, the MIC in the experiment with Klebsiella pneumoniae and with Pseudomonas aeruginosa was greater than 200 µg/mL in each case.
For the compound `CCCCCCCC1CC(O)c2ccc(O)cc2O1` (stereo not given), the MIC in experiment [1] is 25 µg/mL (≈ 94.6 µM); in the experiment with Enterococcus faecalis it was 25 µg/mL (≈ 94.6 µM); in the experiment on Staphylococcus aureus [2], 12.5 µg/mL (≈ 47.3 µM); in the experiment with Escherichia coli [3] it was greater than 200 µg/mL; with Escherichia coli [4], 6.25 µg/mL (≈ 23.6 µM); in the experiment with Staphylococcus aureus [5] it was 12.5 µg/mL (≈ 47.3 µM). The MIC with Klebsiella pneumoniae and against Pseudomonas aeruginosa was greater than 200 µg/mL throughout.
Turning to `O=C1CC(C2CCCC2)Oc2cc(O)cc(O)c21` (stereo not given), the MIC in experiment [1] is 200 µg/mL (≈ 806 µM); in the experiment with Enterococcus faecalis, 50 µg/mL (≈ 201 µM); against Staphylococcus aureus [2], 100 µg/mL (≈ 403 µM); against Escherichia coli [3] it was greater than 200 µg/mL; against Escherichia coli [4] it was 6.25 µg/mL (≈ 25.2 µM); against Staphylococcus aureus [5], 50 µg/mL (≈ 201 µM). Moreover, the minimal inhibitory concentration (MIC) with Klebsiella pneumoniae and in the experiment with Pseudomonas aeruginosa was greater than 200 µg/mL in each case.
With `C=CCOc1ccc(/C=C/C(=O)c2ccc(O)cc2O)cc1`, the minimum inhibitory concentration (MIC) in experiment [1] was 50 µg/mL (≈ 169 µM); against Enterococcus faecalis, 100 µg/mL (≈ 337 µM); in the experiment with Staphylococcus aureus [2], 25 µg/mL (≈ 84.4 µM); with Escherichia coli [3], greater than 200 µg/mL; against Escherichia coli [4] it was greater than 200 µg/mL; in the experiment on Staphylococcus aureus [5], greater than 200 µg/mL. Further, the MIC with Klebsiella pneumoniae and against Pseudomonas aeruginosa was greater than 200 µg/mL throughout.
Turning to `COCOc1ccc(C(=O)/C=C/C2=CCC3CC2C3(C)C)c(O)c1` (stereo not given), the MIC in experiment [1] is 100 µg/mL (≈ 304 µM); with Enterococcus faecalis it was greater than 200 µg/mL; in the experiment on Staphylococcus aureus [2] it was greater than 200 µg/mL; in the experiment with Escherichia coli [3], greater than 200 µg/mL; against Escherichia coli [4] it was 25 µg/mL (≈ 76.1 µM); in the experiment on Staphylococcus aureus [5] it was greater than 200 µg/mL. The MIC against Klebsiella pneumoniae and in the experiment with Pseudomonas aeruginosa was greater than 200 µg/mL each time.
As to `CCCCCCCCCC1CC(=O)c2ccc(O)cc2O1` (stereo not given), the MIC in experiment [1] was greater than 200 µg/mL; with Enterococcus faecalis, 200 µg/mL (≈ 689 µM); against Staphylococcus aureus [2] it was greater than 200 µg/mL; against Escherichia coli [3], greater than 200 µg/mL; with Escherichia coli [4] it was greater than 200 µg/mL; with Staphylococcus aureus [5], greater than 200 µg/mL. Besides, the MIC in the experiment on Klebsiella pneumoniae and with Pseudomonas aeruginosa was greater than 200 µg/mL each time.

(Values after ChEMBL document CHEMBL3351381, “Synthesis, structure-activity relationship studies, and antibacterial evaluation of 4-chromanones and chalcones, as well as olympicin A and derivatives” (J Med Chem, 2014).)
